PubChem BioAssay (NCI)
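Results reflect a 48-hour exposure of cells in 96-well plates to compound at five concentrations. The concentration for 50% growth inhibition is given as GI50. Definition used: TGI = concentration required for complete inhibition of growth.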 Where a SMILES comes first, the peptide text is derived from it. [ ]: non-standard residue; d: D form. The star is where a group is joined. ξ: configuration not given here. X37 = O=C(OCc1ccccc1)[C@@H]1CCC[C@H]1N*; Fmoc = O=C(OCC1c2ccccc2-c2ccccc21)*; ξW = NC(Cc1c[nH]c2ccccc12)C(=O)O; ξF = NC(Cc1ccccc1)C(=O)O; Boc = CC(C)(C)OC(=O)*; ξK = NCCCCC(N)C(=O)O; ξT = CC(O)C(N)C(=O)O; tBu = CC(C)(C)*

Assays:
Test in all cases: NCI-60 cell line screen, 48 h
COLO 205 colon = test system: COLO 205 colon
HCT-116 colon = test system: HCT-116 colon
HOP-62 NSCLC = test system: HOP-62 NSCLC
KM12 colon = test system: KM12 colon
NCI-H522 lung = test system: NCI-H522 lung
OVCAR-4 ovarian = test system: OVCAR-4 ovarian
SK-MEL-2 melanoma = test system: SK-MEL-2 melanoma
SK-OV-3 ovarian = test system: SK-OV-3 ovarian
SNB-19 CNS = test system: SNB-19 CNS
SNB-75 CNS = test system: SNB-75 CNS
UO-31 renal = test system: UO-31 renal

| SMILES | TGI (COLO 205 colon) [µM] | TGI (HCT-116 colon) [µM] | TGI (HOP-62 NSCLC) [µM] | TGI (KM12 colon) [µM] | TGI (NCI-H522 lung) [µM] | TGI (OVCAR-4 ovarian) [µM] | TGI (SK-MEL-2 melanoma) [µM] | TGI (SK-OV-3 ovarian) [µM] | TGI (SNB-19 CNS) [µM] | TGI (SNB-75 CNS) [µM] | TGI (UO-31 renal) [µM] | GI50 (NCI-H522 lung) [µM] | GI50 (UO-31 renal) [µM] |
| --- | --- | --- | --- | --- | --- | --- | --- | --- | --- | --- | --- | --- | --- |
| CC(=O)OC1COC(N2C(=O)C(=O)c3cc(Br)c([N+](=O)[O-])cc32)C(OC(C)=O)C1OC(C)=O (centres undefined) | > 100 | > 100 | > 100 | > 100 | > 100 | > 100 | > 100 | > 100 | > 100 | 81.4 |  |  |  |
| CC(C)=NN/C(=N\S(=O)(=O)c1cc(Cl)c(Oc2ccc([N+](=O)[O-])cc2Cl)c(Cl)c1)Nc1ccc(Cl)cc1 | > 100 | > 100 | > 100 | > 100 | > 100 | > 100 | > 100 |  | > 100 |  | > 100 |  |  |
| Cc1ccc(S(=O)/C=C(\NC(=O)OCc2ccccc2)C(F)(F)F)cc1 (centres undefined) | > 100 | > 100 |  | > 100 | > 100 | > 100 | > 100 | > 100 | > 100 | 91.4 | 73.4 |  |  |
| Nc1nc(Cl)cc(NCC2(CO)CC(CCCCc3ccccc3)C2)n1 (centres undefined) | > 100 | > 100 | > 100 | > 100 | > 100 | > 100 | > 100 | > 100 | > 100 | > 100 |  |  |  |
| O=C(O)CCCN1CCCCC1 |  | > 100 | > 100 | > 100 | > 100 | > 100 | > 100 |  | > 100 | > 100 | > 100 |  |  |
| COc1ccc2cc(C(=O)NCCc3ccccc3)ccc2c1OC | > 100 | > 100 | 75.3 |  |  | > 100 | > 100 | > 100 | > 100 |  |  |  |  |
| CCCCCCc1cc(C=O)sc1-c1ccc(-c2sc(-c3ccc(-c4ccc(-c5cc(CCCCCC)c(-c6ccc(-c7sc(C=O)cc7CCCCCC)s6)s5)s4)s3)cc2CCCCCC)s1 | > 100 | > 100 | > 100 | > 100 | > 100 | > 100 | > 100 | > 100 | > 100 |  | > 100 |  |  |
| CCOC(=O)/C(O)=C(\C=N\C(=S)Nc1ccc(Cl)c(Cl)c1)C(=O)OCC | > 100 | > 100 | > 100 | > 100 |  | > 100 | > 100 | > 100 | > 100 | > 100 | > 100 |  |  |
| CC(C)(C)NCC(O)COc1cccc2[nH]c(C#N)cc12 (centres undefined) | > 100 | > 100 | > 100 | > 100 | > 100 | > 100 | > 100 | > 100 | > 100 |  | > 100 |  |  |
| CC1(C(O)c2ccccc2)CN(C(C)(C)C)C(=O)/C1=C\Sc1ccccc1 (centres undefined) | 50.7 | > 100 | > 100 | > 100 | 22.9 | > 100 | > 100 | > 100 | > 100 |  | > 100 |  |  |
| CCOc1ccc(N=NC2C(=O)N(C(=O)CC(=O)Nc3ccc(Cl)cc3)N=C2C)cc1 (centres undefined) | > 100 | > 100 | > 100 | > 100 | > 100 | > 100 | > 100 | > 100 |  | > 100 | > 100 |  |  |
| CCC1OC2C(CC=C(C)C)=C3OC(C)(O)C(C)(CC)C(O)C3=C3OC(=O)C=C1C32 (centres undefined) | > 100 | > 100 |  | > 100 |  | > 100 | 84.5 | > 100 | > 100 |  | > 100 |  |  |
| COC(=O)c1nc2c(C)c(O)c(O)c([C@H](C)CCC=C(C)C)c2o1 | 35.6 | 41.5 | 67.7 | 67.4 |  | > 100 | 59.7 | > 100 | > 100 | 56.1 | 41.5 |  |  |
| COc1ccc(N=NN2CCCC2)cc1 | 35.5 | 38.6 | > 100 | 14.7 | 32.2 | 43.6 | > 100 | > 100 | > 100 |  | > 100 |  |  |
| CC(OC(C)(C)C)C(NC(=O)C(CCCCNC(=O)OC(C)(C)C)NC(=O)C(Cc1c[nH]c2ccccc12)NC(=O)C(Cc1ccccc1)NC(=O)OCC1c2ccccc2-c2ccccc21)C(=O)NC(Cc1ccccc1)C(=O)N[C@@H]1CCC[C@H]1C(=O)OCc1ccccc1 (some centres undefined) (Fmoc-[ξF][ξW][ξK](Boc)[ξT](tBu)[ξF]-X37) | > 100 | > 100 | > 100 | > 100 | > 100 | > 100 | > 100 | > 100 |  | > 100 | > 100 |  |  |
| N#Cc1nn(-c2ccc(Cl)cc2)c(N)c2c(=N)n3nc(-c4ccccc4)cc3nc12 |  | > 100 | > 33.8 | > 100 | > 100 |  | > 20.7 | 29.3 | > 100 | > 68.4 | 98.5 | 36.4 | 31.5 |
| COc1cccc(-n2nnc3c(N)nc(N)nc32)c1 | > 100 | > 100 | > 100 | > 100 | > 100 | > 100 | > 100 | > 100 | > 100 | > 100 |  |  |  |
| Brc1ccc(-c2ccc(-c3ccc(Br)s3)s2)s1 | > 100 | > 100 | > 100 | > 100 |  | > 100 | > 100 | > 100 | > 100 | > 100 | > 100 |  |  |
| CC(=O)c1nc2ccccc2n1CC(=O)c1ccc([N+](=O)[O-])cc1 | > 100 | 25.1 | 17.6 | 47.3 | 15.7 | > 100 |  | > 100 | 74.2 | > 100 | 45.9 |  |  |
| Cc1[nH]n(C(=O)c2ccccc2O)c(=O)c1/C=C1\C(=O)C=Cc2ccccc21 | 13.1 | > 45.5 | 6.64 | > 74.1 | 15.1 |  | 17.2 | 22.1 | 64.3 | 10.4 | 13.2 |  |  |
